These results are taken from patent US20240350597A1, “PROTEASE INHIBITORS” (University College Dublin, priority 2023, published 2024).

This assay deals with SARS-CoV-2 (WT, D614G). The format is cell-based. To be noted: 50 µM.

Take alpha-1-antitrypsin [A1AT]: the “inhibition of SARS-CoV-2 replication / infection” value is given as 45%.
